This note sets out measurements from PubChem BioAssay (NCI).

Some test systems named below: OVCAR-4 ovarian; HCT-15 colon; OVCAR-8 ovarian; NCI-H460 lung; HCT-116 colon; A549 NSCLC; MDA-N; LOX IMVI melanoma; CAKI-1 renal; SF-268 CNS; SF-295 CNS; MCF7 breast; HOP-92 NSCLC.
What all share (assay): DTP human tumour cell line panel, 48 h

SMILES strings stand for the structures.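 Step 1: Grow cells in 96-well plates. Step 2: Expose to compound for 48 hours at 5 concentrations. Step 3: Interpolate endpoints linearly; if unreached, use highest concentration. GI50 marks 50% less growth. TGI: total growth inhibition.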

Take `NC(Cc1ccc(S(=O)(=O)O)cc1)C(=O)NC(Cc1ccc(S(=O)(=O)O)cc1)C(=O)NC(Cc1ccc(S(=O)(=O)O)cc1)C(=O)NC(Cc1ccc(S(=O)(=O)O)cc1)C(=O)O` (stereo not drawn): the TGI in the test with OVCAR-4 ovarian, in the test on HCT-15 colon, in the test with OVCAR-8 ovarian, with NCI-H460 lung, with HCT-116 colon and in the test on A549 NSCLC was > 100 µM throughout. The TGI in the test on MDA-N, in the test on LOX IMVI melanoma, in the test with CAKI-1 renal, with SF-268 CNS, in the test with SF-295 CNS and in the test with MCF7 breast was > 100 µM each time.
Take `CN1CCN(P2(=S)Oc3ccc4ccccc4c3-c3c(ccc4ccccc34)O2)CC1`: the total growth inhibition concentration (TGI) was > 100 µM in the test on OVCAR-4 ovarian; 59.7 µM with HOP-92 NSCLC; > 100 µM in the test on HCT-15 colon; > 100 µM in the test with OVCAR-8 ovarian; 42.1 µM in the test on NCI-H460 lung; > 100 µM with HCT-116 colon. Further, the total growth inhibition concentration (TGI) in the test with A549 NSCLC was > 100 µM; in the test with LOX IMVI melanoma it was 39.6 µM; with CAKI-1 renal it was > 67.5 µM; with SF-268 CNS, > 100 µM; in the test with SF-295 CNS it was > 100 µM; in the test on MCF7 breast it was > 81.2 µM.
On to `O=C1N[C@@H]2C(=C[C@H](O)[C@@H](O)[C@H]2O)c2cc3c(c(O)c21)OCO3`, for which the TGI in the test with OVCAR-4 ovarian came to 0.537 µM; in the test with HOP-92 NSCLC, 0.272 µM; in the test on HCT-15 colon, 8.16 µM; in the test with OVCAR-8 ovarian it was 0.0613 µM; with NCI-H460 lung it was 0.119 µM; in the test on HCT-116 colon, 0.0569 µM. For the same compound, the concentration for total growth inhibition (TGI) was 0.306 µM in the test on A549 NSCLC; 0.065 µM in the test with LOX IMVI melanoma; 0.0735 µM with CAKI-1 renal; 0.116 µM in the test on SF-268 CNS; 0.245 µM in the test with SF-295 CNS.
In the case of `CCOC(=O)c1c[nH]c2ccc3c(c2c1=O)S(=O)(=O)CC3` (tested in a mixture with another compound), the TGI with OVCAR-4 ovarian, in the test with HOP-92 NSCLC, with HCT-15 colon, in the test on OVCAR-8 ovarian, in the test on NCI-H460 lung and in the test with HCT-116 colon was > 100 µM throughout. The TGI in the test on A549 NSCLC, in the test on LOX IMVI melanoma, with CAKI-1 renal, in the test with SF-268 CNS, in the test on SF-295 CNS and in the test on MCF7 breast was > 100 µM throughout.
Turning to `O=C1CCCC/C1=C\c1ccc(Cl)c(Cl)c1`, the concentration for total growth inhibition (TGI) in the test on OVCAR-4 ovarian is 41 µM; in the test with HCT-15 colon it was 39.3 µM; with OVCAR-8 ovarian it was 78 µM; in the test on NCI-H460 lung, 42.6 µM; with HCT-116 colon it was 31.9 µM; in the test on A549 NSCLC it was > 100 µM. Also, the concentration for total growth inhibition (TGI) was 34.7 µM in the test on LOX IMVI melanoma, 37.6 µM in the test with CAKI-1 renal and 59.4 µM in the test on SF-268 CNS.
In the case of `CCCCNc1nc(NC2OCC(OC(C)=O)C(OC(C)=O)C2OC(C)=O)c(N=O)c(=O)n1C` (stereo not drawn), the TGI in the test on OVCAR-4 ovarian, with HOP-92 NSCLC, in the test on HCT-15 colon, with OVCAR-8 ovarian, in the test with NCI-H460 lung and with HCT-116 colon was > 10 µM in each case. For the same compound, the TGI in the test on A549 NSCLC, in the test with LOX IMVI melanoma, in the test on CAKI-1 renal, in the test with SF-268 CNS, in the test with SF-295 CNS and with MCF7 breast was > 10 µM in each case.
Take `CCCCCCCCCCCC[N+](CCCCCCCCCCCC)=C1SCCS1`: the total growth inhibition concentration (TGI) in the test on OVCAR-4 ovarian was determined as 11.3 µM; in the test with HOP-92 NSCLC it was 23.1 µM; in the test on HCT-15 colon, 22.9 µM; with OVCAR-8 ovarian, 8.33 µM; in the test with NCI-H460 lung, 20.5 µM; with HCT-116 colon, 10.9 µM. For the same compound, the TGI with A549 NSCLC turned out to be 18 µM; in the test on LOX IMVI melanoma, 4.52 µM; in the test on CAKI-1 renal it was 26.1 µM; with SF-268 CNS, 21.5 µM; in the test with SF-295 CNS, 11.6 µM.
In the case of `CC(C)(C)NC(=O)CCC1C(C(=O)NC(C)(C)C)C2(Cl)C(Cl)=C(Cl)C1(Cl)C2(Cl)Cl` (stereo not drawn), the TGI in the test with OVCAR-4 ovarian, with HCT-15 colon, with OVCAR-8 ovarian, in the test on NCI-H460 lung, with HCT-116 colon and with A549 NSCLC was > 100 µM each time. In addition, the concentration for total growth inhibition (TGI) in the test on MDA-N, in the test on LOX IMVI melanoma, with SF-268 CNS, in the test on SF-295 CNS and in the test on MCF7 breast was > 100 µM each time.
Regarding `COC(=O)C(=O)Cc1nc2ccccc2o1`, the TGI in the test on OVCAR-4 ovarian, in the test on HCT-15 colon, with NCI-H460 lung, in the test on HCT-116 colon, in the test with LOX IMVI melanoma and with SF-268 CNS was > 100 µM throughout.
As for `COc1cc(O)c2c(=O)c(OC)c(-c3ccc(OC)c(OC)c3)oc2c1`, the GI50 was 61.8 µM in the test on OVCAR-4 ovarian; > 100 µM with OVCAR-8 ovarian; 68.7 µM in the test on HCT-116 colon; > 100 µM in the test with LOX IMVI melanoma; > 100 µM in the test on SF-268 CNS; > 100 µM with SF-295 CNS. Further, the GI50 in the test on MCF7 breast is 45.8 µM. Also, the concentration for total growth inhibition (TGI) in the test with OVCAR-4 ovarian, in the test on HCT-15 colon, in the test on OVCAR-8 ovarian, in the test on NCI-H460 lung, with HCT-116 colon and in the test with A549 NSCLC was > 100 µM in each case. In addition, the concentration for total growth inhibition (TGI) was > 100 µM in the test on MDA-N; > 100 µM in the test with LOX IMVI melanoma; 57.1 µM in the test on CAKI-1 renal; > 100 µM in the test with SF-268 CNS; > 100 µM in the test with SF-295 CNS; > 100 µM in the test on MCF7 breast.
With `O=NN(CCF)C(=O)NC1CCSCC1`, the concentration for total growth inhibition (TGI) in the test on OVCAR-4 ovarian, in the test with HOP-92 NSCLC, with HCT-15 colon, in the test with OVCAR-8 ovarian, in the test on NCI-H460 lung and with HCT-116 colon was > 100 µM throughout. The total growth inhibition concentration (TGI) in the test on A549 NSCLC, with LOX IMVI melanoma, with CAKI-1 renal, in the test with SF-268 CNS, in the test on SF-295 CNS and in the test with MCF7 breast was > 100 µM in each case.
Take `N#C/C(C(=S)NCc1ccccc1)=C(/N)N1CCCC1`: the TGI in the test with OVCAR-4 ovarian, in the test with HOP-92 NSCLC, in the test on HCT-15 colon, in the test on OVCAR-8 ovarian, with NCI-H460 lung and in the test on HCT-116 colon was > 100 µM each time. Moreover, the concentration for total growth inhibition (TGI) in the test with A549 NSCLC, in the test with MDA-N, in the test with LOX IMVI melanoma, with CAKI-1 renal, with SF-268 CNS and in the test with SF-295 CNS was > 100 µM each time.
For the compound `COC(=O)Cc1c(-c2c(CC(=O)OC)c3ccccc3n2C2OC(COC(C)=O)C(OC(C)=O)C(OC(C)=O)C2OC(C)=O)[nH]c2ccccc12` (stereo not drawn), the TGI in the test on OVCAR-4 ovarian, in the test on HOP-92 NSCLC, with HCT-15 colon, in the test with NCI-H460 lung, in the test on HCT-116 colon and in the test with A549 NSCLC was > 100 µM each time. The TGI in the test with MDA-N, in the test on CAKI-1 renal, in the test on SF-268 CNS and in the test with SF-295 CNS was > 100 µM in each case.
`Cc1cc(NS(=O)(=O)c2ccc(NC(=O)c3cccc4c(Nc5ccc(S(N)(=O)=O)cc5)c5ccccc5nc34)cc2)no1`: the total growth inhibition concentration (TGI) with OVCAR-4 ovarian, in the test on HCT-15 colon, in the test with NCI-H460 lung, in the test with HCT-116 colon, in the test with LOX IMVI melanoma and in the test on SF-268 CNS was > 100 µM in each case.
In the case of `Cn1c(=O)n2n(c1=O)C(C)(C13CC4CC(CC(C4)C1)C3)C13CC4CC(CC1C4)CC23` (stereo not drawn), the TGI in the test on HOP-92 NSCLC, in the test on HCT-15 colon, in the test on OVCAR-8 ovarian, in the test with NCI-H460 lung, in the test with A549 NSCLC and with MDA-N was > 100 µM each time. Moreover, the TGI with CAKI-1 renal, in the test on SF-268 CNS, with SF-295 CNS and in the test with MCF7 breast was > 100 µM in each case.
For `CN=C(Nc1cccc(C(F)(F)F)c1)SCc1ccc(N=C=S)cc1`, the TGI with OVCAR-4 ovarian is 26.8 µM; in the test on HOP-92 NSCLC, 30.5 µM; in the test with HCT-15 colon, 20.8 µM; in the test with OVCAR-8 ovarian, 40.7 µM; with NCI-H460 lung, 26.4 µM; in the test with HCT-116 colon, 29 µM. In addition, the TGI with A549 NSCLC is 37.5 µM; with MDA-N, 28 µM; with LOX IMVI melanoma, 18.4 µM; in the test with CAKI-1 renal, 30.4 µM; in the test with SF-268 CNS, 73.3 µM; in the test with SF-295 CNS, 30.2 µM.
On to `O=c1[nH]c(Nc2nc3ccccc3[nH]2)nc(O)c1Cc1ccccc1`, for which the total growth inhibition concentration (TGI) with OVCAR-4 ovarian is > 100 µM; in the test with HOP-92 NSCLC, 63 µM; in the test with HCT-15 colon, > 100 µM; in the test on OVCAR-8 ovarian, > 100 µM; with NCI-H460 lung it was > 100 µM; in the test with HCT-116 colon it was > 100 µM. The total growth inhibition concentration (TGI) in the test with A549 NSCLC, in the test with MDA-N, with CAKI-1 renal and in the test with SF-268 CNS was > 100 µM throughout.
For the compound `CN1CCN(c2ccc3c(c2)NCC(=O)N3)CC1`, the TGI in the test on OVCAR-4 ovarian, with HOP-92 NSCLC, in the test on HCT-15 colon, in the test on OVCAR-8 ovarian, with NCI-H460 lung and with HCT-116 colon was > 100 µM in each case. Besides, the TGI in the test with A549 NSCLC, with LOX IMVI melanoma, in the test with CAKI-1 renal, with SF-268 CNS and in the test on SF-295 CNS was > 100 µM each time.

In general, TGI refers to the concentration at which net growth stops. As usually defined, the GI50 is the concentration at which growth is held to half of that of the control.
